A short description of assay [1]: Trypanosoma cruzi growth suppression in host cells – NIH3T3 host cells, beta-gal luminescence, confirmation (AID 2044).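 Also: intracellular parasites grown in NIH/3T3 mouse fibroblasts as host cells; luminescent beta-galactosidase reporter signal from transgenic T. cruzi replicating inside host cells; inhibitors lower the luminescence signal.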 Type of assay: functional, cell-based.
The nature of assay [2]: NIH3T3 cell viability loss – ATP luminescence, mouse fibroblasts, counter-screen, dose response (AID 2010).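 Also: cells exposed to compound for about 90 hours before reading.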 The assay is classed as functional, cell-based.
Assay [3] addresses Glyceraldehyde-3-phosphate dehydrogenase (Homo sapiens, UniProt P04406).
The target of assay [4] is T1, Bcl-2-related protein A1 (Mus musculus, UniProt Q07440).
T1 sequence (Q07440 whole entry): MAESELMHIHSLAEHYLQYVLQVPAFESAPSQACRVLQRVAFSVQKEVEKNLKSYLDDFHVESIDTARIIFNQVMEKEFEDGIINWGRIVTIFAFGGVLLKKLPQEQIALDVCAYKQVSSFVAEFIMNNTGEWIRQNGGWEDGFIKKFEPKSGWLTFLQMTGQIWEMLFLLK
Nature of the assay: small-molecule antagonists of Bfl-1/BH3 interaction – biochemical, TR-FRET, mouse Bfl-1, confirmation (AID 621).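 Also: TR-FRET binding of GST-Bfl-1 to FITC-labelled Bid peptide via terbium antibody.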

In assay [5] the target is T1, Bcl-2-related protein A1. Briefly: Bfl-1 binding inhibitors, SAR follow-up, biochemical, fluorescence polarization (AID 1070).
Another assay deals with Ephrin type-A receptor 4 (Mus musculus, UniProt Q03137). Nature of the assay: EphA4 ligand-binding antagonists – biochemical, colorimetric, mouse EphA4, primary screen (AID 689). Type of assay: functional.
Assay [6] addresses E3 ubiquitin-protein ligase Mdm2 (Homo sapiens, UniProt Q00987). Briefly: MDM2-luc reporter signal enhancers, multi-concentration potency testing, MDM2 ubiquitin-protein ligase inhibitor program, whole-cell format, luminescence detection, 384-well microplate (AID 1394).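 Also: MDM2 E3 inhibitors raise luminescence so EC50 is for signal enhancement.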 The assay is classed as functional.
Assay [7] is described as follows: reduction of Shn3 3'UTR-driven luciferase in osteoblasts – cell-based, Clone20 osteoblasts, firefly luciferase, cherry-picked, dose response (AID 624132).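 Also: firefly luciferase luminescence from reporter carrying the Shn3 3'UTR in osteoblasts.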 Type of assay: functional.
Assay [8] in a line: loss of viability in HepG2 cells – cell-based, CellTiter-Glo, cherry-picked, cytotoxicity control for Shn3 inhibitor project, dose response (AID 624134). Type of assay: functional.
Assay [9] in a line: non-specific 3'UTR reporter inhibition in Clone20-Shn3RL – cell-based, Renilla luciferase, cherry-picked, counter-screen for Shn3 inhibitor project, dose response (AID 624133). The assay is classed as functional.
The target of assay [10] is Sphingosine 1-phosphate receptor 2 (Homo sapiens, UniProt O95136). Nature of the assay: Dose Response Cell Based Assay for Antagonists of the S1P2 Receptor. [Related pubchem assays: 856, 736 ]. The assay is classed as functional.
Assay [11] concerns the target T2, Heat shock factor protein 1 (Mus musculus, UniProt P38532).
T2 sequence (P38532 whole entry): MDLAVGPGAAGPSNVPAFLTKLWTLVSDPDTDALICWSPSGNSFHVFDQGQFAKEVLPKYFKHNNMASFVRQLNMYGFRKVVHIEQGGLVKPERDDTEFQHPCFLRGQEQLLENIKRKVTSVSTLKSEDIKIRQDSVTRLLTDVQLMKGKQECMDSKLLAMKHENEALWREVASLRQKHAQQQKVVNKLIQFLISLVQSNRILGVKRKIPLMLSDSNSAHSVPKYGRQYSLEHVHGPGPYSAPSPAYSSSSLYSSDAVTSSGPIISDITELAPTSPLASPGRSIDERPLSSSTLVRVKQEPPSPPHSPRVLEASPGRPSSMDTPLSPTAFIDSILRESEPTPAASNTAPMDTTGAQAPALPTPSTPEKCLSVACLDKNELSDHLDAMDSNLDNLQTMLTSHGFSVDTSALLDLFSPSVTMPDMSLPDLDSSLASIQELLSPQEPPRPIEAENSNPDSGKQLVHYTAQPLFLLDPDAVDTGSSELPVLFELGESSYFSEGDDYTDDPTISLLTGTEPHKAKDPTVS
Briefly: decrease of HSF1-responsive luciferase luminescence – cell-based, NIH3T3, dose retest, confirmation (AID 2382).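 Also: NIH3T3 fibroblasts with HSF1-driven luciferase reporter stressed by proteasome inhibitor MG132; luminescence from HSF1-driven luciferase expression after 8 hours of MG132 stress.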 The assay is classed as functional.

Assay [12] in a line: HPDE-C7 pancreatic duct cell viability loss – fluorescence, HTS (AID 430). The assay is classed as functional, cell-based. The conditions noted are these: Homo sapiens.
Assay [13] in a line: viability loss of HPDE-C7K cells – cell-based, fluorescence, HTS, primary screen (AID 431). The assay is classed as functional. The conditions noted are these: Homo sapiens.
A further assay deals with T3, CAAX prenyl protease 2 (Saccharomyces cerevisiae S288c, UniProt Q03530).
T3 sequence (Q03530 whole entry): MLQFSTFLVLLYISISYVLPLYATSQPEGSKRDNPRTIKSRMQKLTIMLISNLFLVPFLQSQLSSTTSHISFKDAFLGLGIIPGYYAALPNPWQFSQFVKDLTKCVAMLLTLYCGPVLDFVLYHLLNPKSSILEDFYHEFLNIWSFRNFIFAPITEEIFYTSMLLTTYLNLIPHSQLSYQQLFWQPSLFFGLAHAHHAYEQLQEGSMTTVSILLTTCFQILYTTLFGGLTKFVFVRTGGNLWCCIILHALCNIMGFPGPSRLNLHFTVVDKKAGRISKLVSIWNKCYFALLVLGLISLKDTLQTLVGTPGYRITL
Type of assay: biochemical.

Assay [14] is described as follows: Luminescence Cell-Based Dose Confirmation HTS to Identify Activators of 5'UTR Stem-Loop Driven Alpha-Synuclein mRNA Translation in H4 Neuroglioblastoma Cells. [Related pubchem assays: 1829 (Project Summary), 1814 (Primary HTS)]. The assay is classed as functional.
The nature of assay [15]: Luminescence Cell-Based Dose Response HTS to Identify Activators of Luciferase Translation or Activity in H4 […] Cells. [Related pubchem assays: 1829 (Project Summary), 1814 (Primary HTS)]. Type of assay: functional.
For another assay, the system named is H4. Briefly: Luminescence Cell-Based Dose Response HTS to Identify Activators of 5'UTR Stem-Loop Driven Prion Protein mRNA Translation in H4 Neuroglioblastoma Cells. [Related pubchem assays: 1829 (Project Summary), 1814 (Primary HTS)]. Type of assay: functional. The conditions noted are these: Homo sapiens.
In assay [16] the target is Voltage-gated inwardly rectifying potassium channel KCNH2 (Homo sapiens, UniProt Q12809). Nature of the assay: concentration-dependent hERG rescue from blockers – cell-based, thallium flux, dose response (AID 2121). Type of assay: ADME.
Assay [17] has as its target Heat shock protein HSP 90-alpha (Homo sapiens, UniProt P07900). The assay is classed as functional, organism-based.
In a further assay the target is T4, Aminopeptidase N (Plasmodium falciparum FcB1/Columbia, UniProt O96935).
T4 sequence (O96935 whole entry): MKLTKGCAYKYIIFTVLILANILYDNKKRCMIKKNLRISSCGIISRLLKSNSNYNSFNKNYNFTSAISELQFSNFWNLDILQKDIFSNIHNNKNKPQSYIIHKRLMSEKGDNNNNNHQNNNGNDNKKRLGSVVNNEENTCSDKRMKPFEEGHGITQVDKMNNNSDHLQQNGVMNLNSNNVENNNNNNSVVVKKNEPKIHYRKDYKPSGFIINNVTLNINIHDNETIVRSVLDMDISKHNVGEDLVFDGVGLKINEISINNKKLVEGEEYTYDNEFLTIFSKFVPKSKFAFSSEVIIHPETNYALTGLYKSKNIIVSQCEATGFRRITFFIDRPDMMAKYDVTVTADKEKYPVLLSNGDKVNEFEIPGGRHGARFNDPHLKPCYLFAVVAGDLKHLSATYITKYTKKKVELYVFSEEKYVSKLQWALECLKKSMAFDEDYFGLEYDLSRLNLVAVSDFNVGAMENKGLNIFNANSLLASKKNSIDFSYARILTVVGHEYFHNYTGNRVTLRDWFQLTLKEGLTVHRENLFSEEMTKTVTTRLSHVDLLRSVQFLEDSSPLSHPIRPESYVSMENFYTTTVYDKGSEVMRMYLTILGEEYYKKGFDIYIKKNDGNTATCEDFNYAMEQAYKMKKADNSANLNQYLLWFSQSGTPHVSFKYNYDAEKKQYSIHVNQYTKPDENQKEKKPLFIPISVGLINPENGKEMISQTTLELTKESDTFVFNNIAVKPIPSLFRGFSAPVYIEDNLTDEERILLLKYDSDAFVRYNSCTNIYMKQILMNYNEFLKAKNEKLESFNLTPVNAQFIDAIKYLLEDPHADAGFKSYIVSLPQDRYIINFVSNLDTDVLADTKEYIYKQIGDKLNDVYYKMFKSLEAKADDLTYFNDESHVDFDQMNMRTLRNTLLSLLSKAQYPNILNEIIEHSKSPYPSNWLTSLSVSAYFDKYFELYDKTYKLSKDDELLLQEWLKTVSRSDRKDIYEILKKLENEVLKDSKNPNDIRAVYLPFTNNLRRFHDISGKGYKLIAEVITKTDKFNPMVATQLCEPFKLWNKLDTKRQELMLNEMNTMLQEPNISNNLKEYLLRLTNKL
Nature of the assay: malaria alanyl aminopeptidase activity blockers – biochemical, fluorogenic H-Leu-NHMec substrate, 1536-well (AID 1445). Also on record: species or system Plasmodium falciparum 3D7, 3D7.

Assay [18] deals with Streptococcus sp. 'group A'. Briefly: Streptococcus pyogenes SK(-)GAS viability under kanamycin – luminescence, BacTiterGlo, confirmation, counter-screen for streptokinase expression inhibitor project, dose response (AID 1900). Type of assay: functional, organism-based.
The next assay concerns the target T5, Streptokinase A (Streptococcus pyogenes serotype M1, UniProt P10520).
T5 sequence (P10520 whole entry): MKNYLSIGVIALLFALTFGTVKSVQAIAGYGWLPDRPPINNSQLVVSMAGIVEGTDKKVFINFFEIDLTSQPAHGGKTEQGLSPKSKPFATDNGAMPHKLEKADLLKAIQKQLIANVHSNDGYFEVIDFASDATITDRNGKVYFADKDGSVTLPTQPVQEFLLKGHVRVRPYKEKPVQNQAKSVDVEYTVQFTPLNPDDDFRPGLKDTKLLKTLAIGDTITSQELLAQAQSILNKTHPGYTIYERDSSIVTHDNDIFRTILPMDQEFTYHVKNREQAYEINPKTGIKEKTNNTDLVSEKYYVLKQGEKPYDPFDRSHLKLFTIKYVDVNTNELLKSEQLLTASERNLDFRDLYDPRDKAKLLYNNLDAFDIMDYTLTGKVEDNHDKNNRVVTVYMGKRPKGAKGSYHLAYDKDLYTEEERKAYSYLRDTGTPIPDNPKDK
Nature of the assay: viability-normalized secreted streptokinase activity reduction – plasminogen activation absorbance, OD405, dose response (AID 1914).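 Also: secreted streptokinase activity via plasminogen activation per viability signal from cell pellet.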 Type of assay: functional, Streptococcus pyogenes M1 GAS.

The target of assay [19] is Bifunctional protein GlmU (Mycobacterium tuberculosis, UniProt P9WMN3). Briefly: Inhibitors of Mycobacterial Glucosamine-1-phosphate acetyl transferase (GlmU). Secondary screen. Also on record: species or system Mycobacterium tuberculosis H37Rv.
The target in assay [20] is Induced myeloid leukemia cell differentiation protein Mcl-1 (Homo sapiens, UniProt Q07820). The assay is classed as functional.
The subject of another assay is Streptococcus. Nature of the assay: GAS UMAA2166 growth inhibition – luminescence, BacTiterGlo, counter-screen for streptokinase expression inhibitor project, dose response (AID 1915).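 Also: potency for reduction of bacterial viability or growth.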 Type of assay: functional, organism-based.
Assay [21] addresses T6, Probable nicotinate-nucleotide adenylyltransferase (Staphylococcus aureus (strain N315), UniProt P65502). Type of assay: functional, Staphylococcus aureus subsp. aureus N315.
The target of assay [22] is T6, Probable nicotinate-nucleotide adenylyltransferase. The assay is classed as functional, Staphylococcus aureus subsp. aureus N315. The conditions noted are these: read-out: IC50_Mean.

Our source for the EC50, IC50 and AC50 values is ChEMBL document CHEMBL1201862, “PubChem BioAssay data set” (2004).

Active and inactive are the calls of the source.
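For IC50 Mean in this document: confirmatory dose-response retesting of NadD inhibitor hits first found in an ultra-high-throughput screen.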

Sequence of Glyceraldehyde-3-phosphate dehydrogenase (P04406 whole entry): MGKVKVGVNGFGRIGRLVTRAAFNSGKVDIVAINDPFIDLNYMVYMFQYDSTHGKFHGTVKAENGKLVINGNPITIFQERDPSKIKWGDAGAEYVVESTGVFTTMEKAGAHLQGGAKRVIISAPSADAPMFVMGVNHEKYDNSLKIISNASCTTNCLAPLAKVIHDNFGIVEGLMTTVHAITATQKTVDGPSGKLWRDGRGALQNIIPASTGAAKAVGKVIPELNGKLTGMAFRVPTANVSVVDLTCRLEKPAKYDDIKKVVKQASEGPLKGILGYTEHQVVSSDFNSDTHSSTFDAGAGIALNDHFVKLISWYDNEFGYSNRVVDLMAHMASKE
Sequence of E3 ubiquitin-protein ligase Mdm2 (Q00987 whole entry): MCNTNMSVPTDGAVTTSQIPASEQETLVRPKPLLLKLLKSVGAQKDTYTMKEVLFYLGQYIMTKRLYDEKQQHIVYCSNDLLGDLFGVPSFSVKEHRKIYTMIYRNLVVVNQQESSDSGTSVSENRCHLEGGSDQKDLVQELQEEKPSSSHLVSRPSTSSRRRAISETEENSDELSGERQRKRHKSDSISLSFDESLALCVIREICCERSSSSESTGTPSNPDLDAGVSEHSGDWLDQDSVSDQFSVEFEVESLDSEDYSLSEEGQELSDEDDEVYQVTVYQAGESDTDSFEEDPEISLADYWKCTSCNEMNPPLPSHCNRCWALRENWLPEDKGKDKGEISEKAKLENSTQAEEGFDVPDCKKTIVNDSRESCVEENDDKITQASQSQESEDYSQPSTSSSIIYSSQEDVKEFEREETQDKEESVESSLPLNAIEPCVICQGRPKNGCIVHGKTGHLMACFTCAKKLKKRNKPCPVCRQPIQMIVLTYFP
Sequence of Voltage-gated inwardly rectifying potassium channel KCNH2 (Q12809 whole entry): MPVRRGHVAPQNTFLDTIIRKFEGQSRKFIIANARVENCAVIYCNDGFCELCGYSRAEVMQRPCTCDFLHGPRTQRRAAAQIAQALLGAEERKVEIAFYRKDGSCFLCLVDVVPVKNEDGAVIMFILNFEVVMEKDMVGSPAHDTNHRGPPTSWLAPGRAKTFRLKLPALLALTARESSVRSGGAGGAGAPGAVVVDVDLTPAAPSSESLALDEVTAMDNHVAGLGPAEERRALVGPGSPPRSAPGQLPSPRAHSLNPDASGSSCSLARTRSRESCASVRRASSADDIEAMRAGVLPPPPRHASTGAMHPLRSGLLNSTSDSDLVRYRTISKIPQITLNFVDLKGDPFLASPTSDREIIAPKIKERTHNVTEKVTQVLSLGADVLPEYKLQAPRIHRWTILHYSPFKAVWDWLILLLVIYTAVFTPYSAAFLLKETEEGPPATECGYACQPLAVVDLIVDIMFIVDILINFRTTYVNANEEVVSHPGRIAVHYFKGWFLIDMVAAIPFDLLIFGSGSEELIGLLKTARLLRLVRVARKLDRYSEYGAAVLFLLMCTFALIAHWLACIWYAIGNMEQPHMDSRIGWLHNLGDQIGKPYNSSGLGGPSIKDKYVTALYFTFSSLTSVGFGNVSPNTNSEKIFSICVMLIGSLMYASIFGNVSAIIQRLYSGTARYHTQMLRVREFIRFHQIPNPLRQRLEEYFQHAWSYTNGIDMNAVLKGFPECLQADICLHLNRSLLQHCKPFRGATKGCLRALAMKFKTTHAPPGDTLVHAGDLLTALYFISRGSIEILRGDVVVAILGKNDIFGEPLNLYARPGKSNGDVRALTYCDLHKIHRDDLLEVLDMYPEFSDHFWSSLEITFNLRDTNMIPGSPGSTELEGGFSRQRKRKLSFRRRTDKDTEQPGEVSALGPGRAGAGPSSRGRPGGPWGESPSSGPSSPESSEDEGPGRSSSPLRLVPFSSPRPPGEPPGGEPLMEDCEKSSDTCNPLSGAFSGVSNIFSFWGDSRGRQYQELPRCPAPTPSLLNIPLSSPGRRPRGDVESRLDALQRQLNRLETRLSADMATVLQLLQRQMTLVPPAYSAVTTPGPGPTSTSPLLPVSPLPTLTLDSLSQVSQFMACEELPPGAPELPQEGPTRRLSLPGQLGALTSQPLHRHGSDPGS
T6 sequence (P65502 whole entry): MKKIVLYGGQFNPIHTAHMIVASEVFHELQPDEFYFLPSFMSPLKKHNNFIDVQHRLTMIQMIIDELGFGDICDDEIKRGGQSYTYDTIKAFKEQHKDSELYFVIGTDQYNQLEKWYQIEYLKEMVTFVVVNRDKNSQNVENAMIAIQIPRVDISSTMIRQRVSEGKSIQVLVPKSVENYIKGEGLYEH
Sequence of Bifunctional protein GlmU (P9WMN3 whole entry): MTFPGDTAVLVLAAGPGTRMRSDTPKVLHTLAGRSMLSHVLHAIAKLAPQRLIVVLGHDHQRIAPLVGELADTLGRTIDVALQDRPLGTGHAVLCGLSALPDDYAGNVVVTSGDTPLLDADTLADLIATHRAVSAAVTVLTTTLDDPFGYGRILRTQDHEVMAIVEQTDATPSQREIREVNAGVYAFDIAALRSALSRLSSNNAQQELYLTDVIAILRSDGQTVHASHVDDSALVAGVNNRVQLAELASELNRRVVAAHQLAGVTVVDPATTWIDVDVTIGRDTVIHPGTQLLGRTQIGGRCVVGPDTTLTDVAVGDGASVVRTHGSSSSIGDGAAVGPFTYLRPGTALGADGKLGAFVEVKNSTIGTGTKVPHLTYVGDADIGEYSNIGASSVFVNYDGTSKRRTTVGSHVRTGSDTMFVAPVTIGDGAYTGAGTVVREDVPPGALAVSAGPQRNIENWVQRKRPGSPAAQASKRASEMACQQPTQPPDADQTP
Sequence of Sphingosine 1-phosphate receptor 2 (O95136 whole entry): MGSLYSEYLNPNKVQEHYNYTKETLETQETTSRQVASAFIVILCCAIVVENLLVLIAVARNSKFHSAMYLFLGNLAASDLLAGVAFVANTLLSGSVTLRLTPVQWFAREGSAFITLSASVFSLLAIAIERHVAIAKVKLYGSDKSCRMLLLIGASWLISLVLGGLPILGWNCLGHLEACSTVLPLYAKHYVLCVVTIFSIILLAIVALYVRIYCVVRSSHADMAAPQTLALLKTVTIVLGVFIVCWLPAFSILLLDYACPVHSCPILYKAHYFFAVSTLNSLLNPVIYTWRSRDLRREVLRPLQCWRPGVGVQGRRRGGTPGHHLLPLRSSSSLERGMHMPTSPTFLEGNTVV
Sequence of Induced myeloid leukemia cell differentiation protein Mcl-1 (Q07820 whole entry): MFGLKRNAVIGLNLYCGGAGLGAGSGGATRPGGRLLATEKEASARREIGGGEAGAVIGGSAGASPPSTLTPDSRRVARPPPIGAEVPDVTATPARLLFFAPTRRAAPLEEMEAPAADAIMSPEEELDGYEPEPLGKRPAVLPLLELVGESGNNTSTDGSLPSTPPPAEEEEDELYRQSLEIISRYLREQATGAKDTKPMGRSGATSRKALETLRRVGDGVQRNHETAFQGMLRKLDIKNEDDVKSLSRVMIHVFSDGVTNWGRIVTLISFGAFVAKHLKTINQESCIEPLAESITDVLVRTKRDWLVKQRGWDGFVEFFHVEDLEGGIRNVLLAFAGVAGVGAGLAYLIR
Sequence of Ephrin type-A receptor 4 (Q03137 whole entry): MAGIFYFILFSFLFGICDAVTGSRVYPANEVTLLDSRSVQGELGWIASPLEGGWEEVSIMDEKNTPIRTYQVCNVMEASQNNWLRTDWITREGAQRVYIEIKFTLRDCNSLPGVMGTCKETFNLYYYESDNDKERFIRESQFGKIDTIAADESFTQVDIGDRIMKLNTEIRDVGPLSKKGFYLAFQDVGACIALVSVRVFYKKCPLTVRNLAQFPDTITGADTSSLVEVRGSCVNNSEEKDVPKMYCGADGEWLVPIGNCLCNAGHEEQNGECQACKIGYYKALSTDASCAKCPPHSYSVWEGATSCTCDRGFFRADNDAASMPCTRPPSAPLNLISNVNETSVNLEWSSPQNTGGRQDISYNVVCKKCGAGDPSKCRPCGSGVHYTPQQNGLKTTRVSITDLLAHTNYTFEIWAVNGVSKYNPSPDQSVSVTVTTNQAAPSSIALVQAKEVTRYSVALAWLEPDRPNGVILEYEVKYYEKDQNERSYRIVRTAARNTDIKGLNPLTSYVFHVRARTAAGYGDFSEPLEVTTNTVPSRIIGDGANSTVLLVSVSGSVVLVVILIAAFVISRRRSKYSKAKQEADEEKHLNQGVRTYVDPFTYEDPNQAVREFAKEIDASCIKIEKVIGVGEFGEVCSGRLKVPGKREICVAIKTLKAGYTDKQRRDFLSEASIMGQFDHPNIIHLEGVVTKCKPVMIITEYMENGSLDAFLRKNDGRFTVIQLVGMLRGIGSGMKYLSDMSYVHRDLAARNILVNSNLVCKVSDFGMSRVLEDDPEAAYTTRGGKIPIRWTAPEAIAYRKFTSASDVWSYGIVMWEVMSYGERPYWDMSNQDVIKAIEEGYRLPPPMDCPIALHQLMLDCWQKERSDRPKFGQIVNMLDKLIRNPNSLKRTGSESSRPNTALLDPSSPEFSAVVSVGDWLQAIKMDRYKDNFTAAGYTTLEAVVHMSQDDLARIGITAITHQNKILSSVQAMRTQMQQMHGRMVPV

Turning to `COc1ccc(C(=O)OC2CCN(C)CC2)cc1`, the EC50 is < 0.1 µM (active) in assay [1], > 60 µM (not active) in assay [2] and 0.077 µM (active) in “cells”.
`NCCN1CCN(C2=C(Cl)C(=O)N(c3ccc(Cl)c(Cl)c3)C2=O)CC1`: the IC50 (in assay [3]; at Bcl-2-related protein A1 [4]; at Bcl-2-related protein A1 [5]) was > 100 µM (not active) each time.
With `CC1CCCN(c2nc3ccccc3nc2C(C#N)C(=O)OC2CCCCC2)C1` (stereo not given), the IC50 on Ephrin type-A receptor 4 is 9.81 µM (active).
Turning to `Cc1cc(C)nc(S/C=C/C(=O)c2ccccc2)n1`, in assay [6], the 50% effective concentration (EC50) was 1.32 µM (active). Moreover, the AC50 in assay [7] is 1.72 µM (active); in assay [8] it was 42.4 µM (active); in [9], 9.3 µM (active).
Take `CCCC(=O)N1CCN(c2ccc(NC(=O)c3cc4ccccc4o3)cc2Cl)CC1`: the IC50 in assay [10] is 4.67 µM (active). In addition, the half-maximal effective concentration (EC50) was 7.51 µM (active) in assay [11], 7.87 µM (active) in assay [12] and 7.44 µM (active) in assay [13]. Also, the half-maximal activity concentration (AC50) was 11.5 µM (active) at CAAX prenyl protease 2, 4.1 µM (active) in [7], 7.37 µM (active) in [8] and 8.96 µM (active) in [9].
As to `O=C1C(Cl)=C(N2CCN(c3ccccc3F)CC2)C(=O)N1c1ccc(Cl)c(Cl)c1`, the IC50 (in assay [3]; against Bcl-2-related protein A1 [4]; at Bcl-2-related protein A1 [5]) was > 100 µM (not active) in each case.
On to `COc1cccc([C@@H]2Oc3ccc(OC)cc3C(=O)[C@H]2OC(=O)NCc2ccc3c(c2)OCO3)c1`, for which the EC50 in assay [14] is 16.3 µM (active); in assay [15], 16.6 µM (active); with H4, 46.4 µM (active); in [16], 4.06 µM (active).
As to `COc1ccc(N2CCN(C(CNC(=O)Oc3ccccc3)c3cccnc3)CC2)cc1` (stereo not given), the results for the EC50 (in [1]; in [2]; in “cells”) were < 0.1 µM (active), > 30 µM (not active) and 0.087 µM (active), respectively.
Regarding `O=C(CCSc1ccc(Br)cc1)c1ccc(O)cc1`, the EC50 in [16] was 1.17 µM (active). For the same molecule, in assay [17], the AC50 was 1.81 µM (active).
Regarding `COc1ccc(C2C(C(=O)N3CCCCC3)CCC(=O)N2c2cc(OC)c(OC)c(OC)c2)cc1` (stereo not given), in assay [6], the EC50 is 47.1 µM (not active).
With `O=C(N/N=C/c1ccc(-c2ccc(Cl)c(C(=O)O)c2)o1)c1cc2c(ccc3ccccc32)o1`, the IC50 at Aminopeptidase N is 9.45 µM (active); in assay [19] it was 58.8 µM (active); in assay [20] it was 1.55 µM (active); in assay [21] it was 3.91 µM (active); in assay [22], 10.7 µM (active). Besides, the concentration giving a half-maximal response (EC50) in assay [18] was 3.13 µM (active); at Streptokinase A it was > 150 µM (not active); in the assay on Streptococcus, 66.6 µM (inconclusive).
